System: Trypanosoma brucei brucei
Test: microbe, parasite or virus in culture
Type: functional, organism-based, STIB 795
Description: DNDI: Inhibition of Human African Trypanosomiasis (HAT), STIB 795, in vitro

Row | IC50 (Trypanosoma brucei, STIB 795) | IC50 | Compound
1 | > 10.4 µM |  | Oc1c(C(c2ccccn2)N2CCCCC2)cc(Cl)c2cccnc12 (stereo unspecified)
2 | > 10.4 µM |  | O=C(Cc1cccs1)Nc1ccc(C(=O)Nc2nccs2)cc1
3 | > 10.4 µM |  | O=C(N/N=C/c1cc(Cl)ccc1O)c1cc(C2CC2)nc2ccccc12
4 | > 10.4 µM |  | COc1ccc(/C(N)=N/OC(=O)c2ccc(C)c(C)c2)cc1
5 | > 10.4 µM |  | CCOC(=O)c1cc2c(=O)n3ccccc3nc2n(CCCn2ccnc2)c1=N
6 | > 10.4 µM |  | COc1ccccc1NC(=O)c1cc2ccccc2cc1O
7 | > 10.4 µM |  | Cc1nn(C(=N)N)c(C)c1C1c2ccccc2CCc2ccccc21
8 | > 10.4 µM |  | COC(=O)c1ccc2c(c1)C(C)(C)C(/C=C/c1cccc(OC)c1OC)=[N+]2C
9 | > 10.4 µM |  | Cn1c(=O)cc(NNc2ccccc2)[nH]c1=O
10 | > 10.4 µM |  | COc1ccc(NC2=NC(=O)C(CO)(CO)S2)cc1
11 | > 10.4 µM |  | CN(C)c1ccc(C(=O)NN=C2C=C(C(C)(C)C)C(=O)C(C(C)(C)C)=C2)cc1
12 | > 10.4 µM |  | CN(C)c1ccc(/C=N/Nc2cc(N3CCCC3)nc(N3CCCC3)n2)cc1
13 | > 10.4 µM |  | Cc1ccc(N2CCN(c3ccc4nnc(C)n4n3)CC2)c(C)c1
14 | > 10.4 µM |  | N=C(Cc1cccc2ccccc12)NOC(=O)c1cccs1
15 | > 10.4 µM |  | C=C1N(CCCCN2C(=C)C(C)(C)c3ccccc32)c2ccccc2C1(C)C
16 | > 10.4 µM |  | CN(C)c1ccc(C2(c3ccc(N(C)C)cc3)C=Cc3ccccc3O2)cc1
17 | > 10.4 µM |  | CCOC(=O)COC1=C(c2ccccc2)C(=O)c2ccccc2C1=O
18 | > 10.4 µM |  | OC(CNCc1ccccc1)COc1cc2ccsc2c2ccccc12 (stereo unspecified)
19 | > 10.4 µM |  | CC(=O)Nc1cccc2c1C(=O)C(Cl)=C(N1CCOCC1)C2=O
20 | > 10.4 µM |  | O=C(CC1(O)C(=O)Nc2ccc(Br)cc21)c1ccccn1 (stereo unspecified)
21 | > 10.4 µM |  | COC(=O)CCC/C=C1/SC[C@@H](NC(=O)c2ccccc2)/C1=N/O
22 | > 10.4 µM |  | O=C1c2ccc(Cl)c3c(Cl)ccc(c23)C(=O)N1Nc1ccccc1
23 | > 10.4 µM |  | O=C1c2ccccc2C2=NS(=O)(=O)c3cccc1c32
24 | > 10.4 µM |  | Cc1cc(N)n2ncc(-c3ccc(Cl)cc3)c2n1

Row | IC50 (Trypanosoma brucei, STIB 795) | IC50 | Compound
25 | > 10.4 µM |  | Nc1ccccc1S(=O)(=O)Nc1cccc2cccnc12
26 | > 10.4 µM |  | Nc1nc(Nc2ccccc2)sc1C(=O)c1c[nH]c2ccccc12
27 | > 10.4 µM |  | Cc1cc(C)c(CCCc2c(C)nc(N)nc2N)cc1C
28 | > 10.4 µM |  | CC(C)CCn1c(C(C)N2CCCCC2)nc2ccccc21 (stereo unspecified)
29 | > 10.4 µM |  | Cc1cc(Br)cc(/C=N/NC(=O)c2ccncc2)c1O
30 | > 10.4 µM |  | CCOc1nc(Nc2ccc(Cl)cc2)nc(NC2CCCCC2)n1
31 | > 10.4 µM |  | ON=C1C=CC(=NNc2nncc3ccccc23)C=C1
32 | > 10.4 µM |  | CC12C(=O)N(c3ccc(Cl)cc3O)C(=O)C1C1c3ccccc3C2c2ccccc21 (stereo unspecified)
33 | > 10.4 µM |  | CC(C)(C)c1ccc(C(CN)c2ccc(Oc3ccccc3)cc2)cc1 (stereo unspecified)
34 | > 10.4 µM |  | CC[n+]1c(/C=C2\Sc3ccccc3N2CCC(=O)O)sc2ccccc21
35 | > 10.4 µM |  | Cc1cc(C(=O)N/N=C/c2c(O)ccc3ccccc23)c(C)o1
36 | > 10.4 µM |  | Oc1cccc2ccc(Nc3ccccc3)nc12
37 | > 10.4 µM |  | CCN1CCN(c2cc(C)c3cc(NC(=O)c4cccs4)ccc3n2)CC1
38 | > 10.4 µM |  | COC(C(=O)NCc1ccc(Cl)cc1)(c1ccccc1)c1ccccc1
39 | > 10.4 µM |  | Cc1ccc(C2=NC(c3ccccc3F)NC(c3ccccc3O)C2)cc1 (stereo unspecified)
40 | > 10.4 µM |  | COc1ccc(-c2nc3c(=O)n(C)c(=O)nc-3n(C)n2)cc1OC
41 | > 10.4 µM |  | CC(C)N1C/C(=C\c2cccc(Cl)c2)C(=O)/C(=C/c2cccc(Cl)c2)C1
42 | > 10.4 µM |  | COc1ccc2c(c1)SCc1ccccc1/C2=C\CCN(C)C
43 | > 10.4 µM |  | CCCCOC(=O)c1ccc(NC(=O)c2ccc(C3CCCCC3)cc2)cc1
44 | > 10.4 µM |  | CCN(CC)c1cc(C)c2cc(NC(=O)/C=C/c3ccccc3Cl)ccc2n1
45 | 4.31 µM | 4.62 µM | Cc1ccc(OCc2nn(C3CC(=O)C4OCC3O4)c(=S)n2C)cc1C (stereo unspecified)
46 | > 10.4 µM |  | Clc1ncnc2c1C(c1ccccc1)c1c(Cl)ncnc1O2
47 | > 10.4 µM |  | Cc1ccccc1C(=O)O/N=C(\N)c1ccccn1
48 | > 10.4 µM |  | OC(COCc1ccc(Cl)cc1)CN1CCC(Cc2ccccc2)CC1 (stereo unspecified)

Row | IC50 (Trypanosoma brucei, STIB 795) | IC50 | Compound
49 | > 10.4 µM |  | O=C1/C(=C2\NCC(c3ccccc3)O2)Sc2ccccc21 (stereo unspecified)
50 | > 10.4 µM |  | Cc1c(-c2cc(Cl)cc3c2OC(C)(C)C3=O)ccc(N)c1C#N
51 | > 10.4 µM |  | O=C(Nc1ccccc1C(=O)N/N=C/c1ccc(O)cc1O)c1ccc(F)cc1
52 | > 10.4 µM |  | COc1cc(NC(=O)Nc2ccc(-c3noc(C)n3)cc2)cc(OC)c1OC
53 | > 10.4 µM |  | CC1C(=O)Nc2ccc(S(=O)(=O)N3CCOCC3)cc2NC1=O (stereo unspecified)
54 | > 10.4 µM |  | Cc1nc(=S)sn1-c1nc(Nc2ccccc2)nc(Nc2ccccc2)n1
55 | > 10.4 µM |  | CCc1c(C)nc(SCC#N)c(C#N)c1C
56 | > 10.4 µM |  | CCn1c2ccccc2c2cc(/C=N/NC(=O)c3ccccn3)ccc21
57 | > 10.4 µM |  | O=c1c(Cl)c(Cl)cnn1C12CC3CC(CC(C3)C1)C2
58 | > 10.4 µM |  | C=CCc1cccc(/C=N/NC(=O)c2cc(C(C)(C)C)n[nH]2)c1O
59 | > 10.4 µM |  | Cc1ccc(OCCn2c(N)nc3ccccc32)cc1
60 | > 10.4 µM |  | NS(=O)(=O)c1ccc(N/C=C2\C(=O)Nc3ccccc32)cc1
61 | > 10.4 µM |  | COc1cc(NS(=O)(=O)c2ccc(C)cc2)c2ncccc2c1
62 | > 10.4 µM |  | COc1nc(Nc2nc(O)c3ccccc3n2)nc2ccc(C)cc12
63 | > 10.4 µM |  | N/C(=N\OC(=O)c1ccccc1F)c1ccccc1
64 | > 10.4 µM |  | CN(C)S(=O)(=O)c1ccc(C(=O)Nc2nnc(-c3cccs3)o2)cc1
65 | > 10.4 µM |  | CC(C)(C)c1ccc(CCC2OCC(CN3CCCC3)O2)cc1 (stereo unspecified)
66 | > 10.4 µM |  | CCOC(=O)CNC(=O)c1ccc2c(Cl)c3c(nc2c1)CCCC3
67 | > 10.4 µM |  | COc1ccc(O)c(/C=N/NC(=O)c2cccc3ccccc23)c1
68 | > 10.4 µM |  | O=C1C(O)=C/C(=N/c2ccc(Cc3ccncc3)cc2)c2ccccc21
69 | > 10.4 µM |  | CNC(c1ccccc1)C1c2cccc3cccc(c23)C1O (stereo unspecified)
70 | > 10.4 µM |  | Cc1ccc(O)c(/C=N/NC(=O)c2[nH]ncc2Br)c1
71 | > 10.4 µM |  | Cc1cc(C(=O)N/N=C/c2ccc(-c3cccc(C(=O)O)c3)o2)[nH]n1
72 | > 10.4 µM |  | CN(C)S(=O)(=O)c1ccc2nc(NC(=O)c3cccs3)sc2c1

Row | IC50 (Trypanosoma brucei, STIB 795) | IC50 | Compound
73 | > 10.4 µM |  | COc1ccc(/C(N)=N/OC(=O)c2cccc(F)c2)cc1
74 | > 10.4 µM |  | O=C(NCC1CCCO1)c1cccc(Oc2cc(-c3ccc(F)cc3)ncn2)c1 (stereo unspecified)
75 | > 10.4 µM |  | COc1ccc(/N=N/c2ccc(O)c3ncccc23)cc1
76 | > 10.4 µM |  | C/C(=N\N1C(=O)c2ccccc2NC1c1ccco1)c1ccccc1O (stereo unspecified)
77 | > 10.4 µM |  | O=C(O)c1ccccc1N/N=C(/c1ccccc1)c1ccc(Br)cc1
78 | > 10.4 µM |  | CCOC(=O)c1ccc(NC(=O)CN(c2cccc(F)c2)S(C)(=O)=O)cc1
79 | > 10.4 µM |  | CCCCCn1c(C(Cc2ccccc2)NC(=O)COC)nc2ccccc21 (stereo unspecified)
80 | > 10.4 µM |  | COc1ccc(C(=O)O/N=C(\N)c2cccnc2)cc1
81 | > 10.4 µM |  | C/C(=N\Nc1nnc2c(n1)[nH]c1c(C)cccc12)c1ccccc1O
82 | > 10.4 µM |  | CCn1nc(-c2ccc(OC)cc2)nc2c(=O)n(C)c(=O)nc1-2
83 | > 10.4 µM |  | O=C(N/N=C/c1ccc(O)c2ncccc12)c1ccc(F)cc1
84 | > 10.4 µM |  | Oc1ccc(CNc2ccccc2F)c2cccnc12
85 | > 10.4 µM |  | CC1=C(C)C(=O)C(c2cccs2)=C(C)C1=O
86 | > 10.4 µM |  | CC(C)(C)N(NC(=O)Nc1ccc(Cl)cc1)C(=O)c1ccccc1F
87 | > 10.4 µM |  | CCCC(=O)NC(c1ccc(SC)cc1)c1ccc2cccnc2c1O (stereo unspecified)
88 | > 10.4 µM |  | COc1ccc(CN2CCc3nc(N4CCC(C)CC4)ncc3C2)c(OC)c1
89 | > 10.4 µM |  | CCCN1CCN(c2ncc3c(n2)CCN(Cc2ccccc2Cl)C3)CC1
90 | > 10.4 µM |  | COc1ccc(/C(N)=N/OC(=O)c2ccccc2F)cc1OC
91 | > 10.4 µM |  | C=CCN1C(=O)c2ccccc2Sc2ccc(C(=O)NCc3ccco3)cc21
92 | > 10.4 µM |  | CCOc1ccc(C(=O)N/N=C(\c2ccccc2)c2ccccn2)cc1
93 | > 10.4 µM |  | Cc1ccc2[nH]c3c(c2c1)CCC(/C=N/NC(=O)c1ccccc1)C3=O (stereo unspecified)
94 | > 10.4 µM |  | Cc1ccnc(NC(c2ccc3cccnc3c2O)c2c(F)cccc2Cl)c1 (stereo unspecified)
95 | > 10.4 µM |  | Cn1c(NC(=O)c2ccccc2NC(=O)c2ccccc2)nc2ccccc21
96 | > 10.4 µM |  | COC(=O)c1cccc(Nc2nc(N)c(C(=O)CC(C)C)s2)c1

Row | IC50 (Trypanosoma brucei, STIB 795) | IC50 | Compound
97 | > 10.4 µM |  | COc1ccc(CNC2=C(C(=S)Nc3ccccc3)C(=O)CC(C)(C)C2)cc1
98 | > 10.4 µM |  | CC(NCC(O)COCCC12CC3CC(CC(C3)C1)C2)c1ccccc1 (stereo unspecified)
99 | > 10.4 µM |  | Cc1cc(N2CCC(C)CC2)nc2ccc(NC(=O)c3c(F)cccc3F)cc12
100 | > 10.4 µM |  | NC(=S)N/N=C/c1ccc(OCc2c(Cl)cccc2Cl)cc1
101 | > 10.4 µM |  | Cc1ccsc1/C=C/C(=O)Nc1ccc2nc(N3CCCCC3)cc(C)c2c1
102 | > 10.4 µM |  | O=C(NCC1CCCO1)C(=O)N/N=C/c1c(O)ccc2ccccc12 (stereo unspecified)
103 | > 10.4 µM |  | C=CC1=Nc2ccccc2C(c2ccccc2)(c2ccccc2)N1
104 | > 10.4 µM |  | CCN(CC)C1=C(n2nnc3ccccc32)C(=O)c2ccccc2C1=O
105 | > 10.4 µM |  | N#Cc1nc2c(c(N3CCNCC3)c1-c1ccccc1)CCCC2
106 | > 10.4 µM |  | CN(C)CCCC1(C)Oc2ccccc2Sc2ccccc21 (stereo unspecified)
107 | > 10.4 µM |  | N#CC1=C(N)OC2=C(CC/C2=C\c2ccccc2Cl)C1c1ccccc1Cl (stereo unspecified)
108 | > 10.4 µM |  | O=C(Nc1nc(NC(=O)c2ccco2)n(-c2ccccc2)n1)c1ccccc1
109 | > 10.4 µM |  | O=C(Nc1ccccc1C(=O)N/N=C/c1ccccc1O)c1ccccc1Cl
110 | > 10.4 µM |  | c1ccc(Oc2cccc(-c3nc4ccccc4[nH]3)c2)cc1
111 | > 10.4 µM |  | O=C(Nc1cccc(Cl)c1)C1CCN(c2ncc(-c3ccccc3)cn2)CC1
112 | > 10.4 µM |  | CCOC(=O)c1sc(=S)n(-c2ccccc2CC)c1N
113 | > 10.4 µM |  | Oc1ccccc1/C=N\NC(=S)Nc1ccc(F)cc1
114 | > 10.4 µM |  | CC(=O)NC1=C(N2CCN(c3ccc(F)cc3)CC2)C(=O)c2ccccc2C1=O
115 | > 10.4 µM |  | CCOc1cc2c(cc1OCC)C(c1ccccc1)N(c1ccccc1)C(=O)C2 (stereo unspecified)
116 | > 10.4 µM |  | O=C(CCC(=O)Nc1cccc(Cl)c1)N/N=C/c1c(O)ccc2ccccc12
117 | > 10.4 µM |  | COCc1nc2ccccc2n1CCCCOc1cccc(C)c1
118 | > 10.4 µM |  | COc1cc(/C=C/c2cc(C(F)(F)F)nc(=O)[nH]2)ccc1O
119 | > 10.4 µM |  | N=C(NOC(=O)c1ccc(Cl)c(Cl)c1)c1ccccn1

Row | Compound | IC50 (Trypanosoma brucei, STIB 795) | IC50
120 | Cc1ccc(Cl)cc1N1CCN(CCN)CC1 | > 10.4 µM | 

Reference: ChEMBL document CHEMBL2094269, “WEHI/Eskitis Trypanosoma b. brucei screening data”
